According to the supplement of paper PMC5908809:

Experiments:
[1] = test system: normal NK cells expanded with K562-aAPC; experiment: percent inhibition of viability; higher = more inhibition; settings: 72 h, IL-2 2.5 ng/mL
Experimental: (§1)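 Drug sensitivity and resistance testing on K562-aAPC-expanded normal NK cells: 5 concentrations (10-fold steps over a 10,000-fold range), 72 h at 37 °C, viability by CellTiter-Glo normalised to DMSO and benzethonium chloride controls; DSS from the fitted curve.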

[2] = test system: normal NK cells expanded with K562-aAPC; experiment: drug sensitivity score (DSS) (DSS units); higher = more sensitive; extreme values may be limits of the assay; settings: 72 h; IL-2 2.5 ng/mL
Experimental: as §1

DERL-7 (IL-2 2.5 ng/mL) [3] = experiment: as above; settings: 72 h
[4] = test system: normal primary NK cells, pool 1 (3 donors) (IL-2 2.5 ng/mL); experiment: as above; settings: 72 h
NKL (IL-2 2.5 ng/mL) [5] = experiment: as above; settings: 72 h
KAI3 (IL-2 2.5 ng/mL) [6] = experiment: as above; settings: 72 h
IMC-1 (IL-2 20 ng/mL) [7] = experiment: as above; settings: 72 h
[8] = test system: normal primary NK cells, pool 1 (3 donors), resting (IL-2 0 ng/mL); experiment: as above; settings: 72 h
SNK-6 (IL-2 2.5 ng/mL) [9] = experiment: as above; settings: 72 h
[10] = test system: normal primary NK cells, pool 2 (3 donors) (IL-2 2.5 ng/mL); experiment: as above; settings: 72 h
[11] = test system: normal primary NK cells, pool 3 (3 donors) (IL-2 2.5 ng/mL); experiment: as above; settings: 72 h
YT (IL-2 2.5 ng/mL) [12] = experiment: as above; settings: 72 h
KHYG-1 (IL-2 2.5 ng/mL) [13] = experiment: as above; settings: 72 h
NK-YS (IL-2 2.5 ng/mL) [14] = experiment: as above; settings: 72 h
NK-92 (IL-2 2.5 ng/mL) [15] = experiment: as above; settings: 72 h
DERL-7 (IL-2 2.5 ng/mL) [16] = experiment: percent inhibition of viability; higher = more inhibition; settings: 72 h
[17] = test system: normal primary NK cells, pool 1 (3 donors) (IL-2 2.5 ng/mL); experiment: as above; settings: 72 h
NKL (IL-2 2.5 ng/mL) [18] = experiment: as above; settings: 72 h
KAI3 (IL-2 2.5 ng/mL) [19] = experiment: as above; settings: 72 h
IMC-1 (IL-2 20 ng/mL) [20] = experiment: as above; settings: 72 h
[21] = test system: normal primary NK cells, pool 1 (3 donors), resting (IL-2 0 ng/mL); experiment: as above; settings: 72 h
SNK-6 (IL-2 2.5 ng/mL) [22] = experiment: as above; settings: 72 h
[23] = test system: normal primary NK cells, pool 2 (3 donors) (IL-2 2.5 ng/mL); experiment: as above; settings: 72 h
[24] = test system: normal primary NK cells, pool 3 (3 donors) (IL-2 2.5 ng/mL); experiment: as above; settings: 72 h
YT (IL-2 2.5 ng/mL) [25] = experiment: as above; settings: 72 h
KHYG-1 (IL-2 2.5 ng/mL) [26] = experiment: as above; settings: 72 h
NK-YS (IL-2 2.5 ng/mL) [27] = experiment: as above; settings: 72 h
NK-92 (IL-2 2.5 ng/mL) [28] = experiment: as above; settings: 72 h

Cc1sc2c(c1C)C(c1ccc(Cl)cc1)=N[C@@H](CC(=O)Nc1ccc(O)cc1)c1nnc(C)n1-2 [OTX015] (max concentration tested 10000 nM)
percent inhibition of viability [%]
Settings	1 nM	10 nM	100 nM	1000 nM	10000 nM
DERL-7 (IL-2 2.5 ng/mL) [16]	1.92	24	62	95.8	100
IMC-1 (IL-2 20 ng/mL) [20]	-7.07	-8.73	1.26	73.2	97.4
KAI3 (IL-2 2.5 ng/mL) [19]	3.12	-12.4	6.28	43.9	56.6
KHYG-1 (IL-2 2.5 ng/mL) [26]	-1.24	-0.67	38.7	91	106
NK-92 (IL-2 2.5 ng/mL) [28]	-10.2	-31	-32.9	22.6	36.9
NK-YS (IL-2 2.5 ng/mL) [27]	-0.13	1.91	28.4	62.4	81.9
NKL (IL-2 2.5 ng/mL) [18]	6.07	1.36	45.3	69.8	73.4
SNK-6 (IL-2 2.5 ng/mL) [22]	15.4	3.9	54.7	66.5	49.5
YT (IL-2 2.5 ng/mL) [25]	-1.39	-5.05	12.7	50.1	56.8
[1]	-2.53	-1.01	4.29	35.6	59.9
[17]	-1.64	12.5	32.6	59.5	80.1
[21]	-3.45	11.8	18.6	34.9	49.6
[23]	-6.93	6.42	15.3	54.1	76.5
[24]	-1.79	8.04	9.85	28.3	57.8

Settings	drug sensitivity score
DERL-7 (IL-2 2.5 ng/mL) [3]	26.7
IMC-1 (IL-2 20 ng/mL) [7]	13.8
KAI3 (IL-2 2.5 ng/mL) [6]	8.88
KHYG-1 (IL-2 2.5 ng/mL) [13]	21.6
NK-92 (IL-2 2.5 ng/mL) [15]	4.42
NK-YS (IL-2 2.5 ng/mL) [14]	15.2
NKL (IL-2 2.5 ng/mL) [5]	18.9
SNK-6 (IL-2 2.5 ng/mL) [9]	19.3
YT (IL-2 2.5 ng/mL) [12]	10.8
[2]	7.54
[4]	15.7
[8]	8.82
[10]	12.1
[11]	6.65
